In patent US6696439B1, “5-HT1F agonists” (Eli Lilly and Company, priority 1999, dated 2004):

| Compound | melting point |
| --- | --- |
| Cc1oc2ccc(NC(=O)c3ccccc3)nc2c1CCN(C)C | 119 to 120 °C |
| CN(C)CCc1coc2ccc(NC(=O)c3ccc(F)cc3)nc12.O=C(O)C(=O)O | 124 to 126 °C |
| Cc1oc2ccc(NC(=O)c3ccc(F)cc3)nc2c1CCN(C)C.O=C(O)C(=O)O | 136 to 138 °C |
| CCC(=O)Nc1ccc2occ(CCN(C)C)c2n1.O=C(O)C(=O)O | 153 to 155 °C |
| CCC(=O)Nc1ccc2oc(C)c(CCN(C)C)c2n1.O=C(O)C(=O)O | 168 to 170 °C |

The remaining lines, values ahead:

| melting point | Compound |
| --- | --- |
| 68 to 69 °C | CN(C)CCc1coc2ccc(NC(=O)c3cccs3)nc12.O=C(O)C(=O)O |
| 65 to 66 °C | CN(C)CCc1coc2ccc(NC(=O)c3ccccc3)nc12.O=C(O)C(=O)O |
| 211 to 212 °C | Cc1oc2ccc(NC(=O)c3cccs3)nc2c1CCN(C)C.O=C(O)C(=O)O |
